# Laboratory results from paper PMC9643456, “Matching amino acids membrane preference profile to improve activity of antimicrobial peptides” (Communications Biology, 2022).
# Read-outs that look alike come from different tables or passages of the source. Square brackets hold non-standard residues; d marks the D form. Ends that are not written are not given here. Peptide text beside a SMILES is read from it. dBta = N[C@H](Cc1csc2ccccc12)C(=O)O
# What was measured:
# MDR A. baumannii = assay: microbe, parasite or virus in culture; details: CLSI broth microdilution; CAMHB with 50 mg/L Ca2+, 10 mg/L Mg2+; 5 × 10^5 CFU/ml; 18 h 37 °C; triplicate; strain ATCC BAA-1605
# Source text: (§1) MDR Pseudomonas aeruginosa (CCARM 2180) was purchased from the Culture Collection of Antimicrobial Resistance Microbes (Seoul, Republic of Korea). MDR Acinetobacter baumannii (ATCC BAA-1605) and MDR Enterococcus faecalis (ATCC 51575) were purchased from the American Type Culture Collection (Manassas, VA, USA). MDR Staphylococcus aureus (KCCM 40510) was purchased from the Korean Culture Center of Microorganisms (Seoul, Republic of Korea). S. aureus (KCTC 1621) was purchased from the Korean Collection for Type Cultures. A. baumannii (KCCM 40203) was purchased from the Korean Culture Center of Microorganisms (Seoul, Republic of Korea).
# (§2) To assess antimicrobial activity, the MIC50 and MIC90 were measured using broth microdilution following CLSI guidelines. […] Each experiment was performed in triplicate. Meropenem (Sigma, Darmstadt, Germany) and colistin were used as control antibiotics. Cation-adjusted Mueller–Hinton broth (CAMHB) (Becton, Dickinson and Company, Franklin Lakes, USA) with supplied calcium (50 mg/L) and magnesium (10 mg/L) was used for the CLSI-test condition. Bacteria in midlog phase and peptides were separately diluted in CAMHB. The bacteria and peptide solutions were then mixed in 96-well polyethylene plates (SPL, Gyeonggi-do, Korea) and incubated for 18 h at 37 °C. The final concentration for bacteria was 5 × 10^5 CFU/ml. […] The MIC was defined to be the lowest concentration of peptide without visible turbidity by comparing with control antibiotics with the unaided eye. […] Each experiment was performed in triplicate. MICs in albumin and acetic acid solutions were measured using the same protocol but with 0.2% bovine serum albumin (Bovogen, Keilor, Australia), 0.01% acetic acid (Merck, New Jersey, USA), and CAMHB with both calcium and magnesium. In addition, MICs used in the antibiotic resistance acquisition test, the outer–inner membrane permeation test, and the transmembrane potential test and for FE-SEM were individually determined. The final bacterial concentrations used were as follows: for resistance acquisition, optical density (OD) 0.01; for outer–inner membrane permeability assays (LB), OD 0.1; for the transmembrane potential test, 1 × 10^8 CFU/ml (OD 0.171); […]. Inhibitory activity unidentifiable by direct observation was determined by counting the CFUs. Each experiment was performed at least twice.
# MDR P. aeruginosa = assay: microbe, parasite or virus in culture; details: CLSI broth microdilution; CAMHB with 50 mg/L Ca2+, 10 mg/L Mg2+; 5 × 10^5 CFU/ml; 18 h 37 °C; no visible turbidity; triplicate; strain CCARM 2180
# Source text: as §1, §2
# MDR S. aureus = assay: microbe, parasite or virus in culture; details: CLSI broth microdilution; CAMHB with 50 mg/L Ca2+, 10 mg/L Mg2+; 5 × 10^5 CFU/ml; 18 h 37 °C; triplicate; strain KCCM 40510
# Source text: as §1, §2
# human red blood cells = assay: Hemolytic activity; type: cell-based
# Experimental: Human red blood cells (Zenbio, North Carolina, USA) and peptides were separately diluted in PBS (blood concentration, 8%). The blood cell and peptide solutions were then mixed in 96-well polyethylene plates (SPL, Gyeonggi-do, Korea) and incubated for 18 h at 37 °C. The final concentration of human red blood cells was 4%, while peptide concentrations were 100 μM, 50 μM, 25 μM, 12.5 μM, 6.25 μM, 3.13 μM, 1.56 μM, and 0.78 μM. After incubation, the plates were centrifuged at 1000 × g for 5 min, and the supernatants were transferred to 96-well polyethylene plates. Hemolysis levels were determined by measuring the absorbance at 540 nm with a SpectraMax plate spectrophotometer (Molecular Devices, California, USA). Control samples were treated with 1% Triton X-100 (for 100% hemolysis) or solution with 0 μM peptide (for 0% hemolysis) and melittin (for positive control). Each experiment was performed in triplicate.
Compound,"Minimum inhibitory concentrations, MDR A. baumannii (MDR A. baumannii)","Minimum inhibitory concentrations, MDR P. aeruginosa (MDR P. aeruginosa)","Minimum inhibitory concentrations, MDR S. aureus (MDR S. aureus)","Hemolysis percent, 25 μM (human red blood cells; red cells of human, 18 h)","Hemolysis percent, 50 μM (human red blood cells; red cells of human, 18 h, 50)","Hemolysis percent, 100 μM (human red blood cells; red cells of human, 18 h)","Hemolysis percent, 50 μM (human red blood cells)"
CC[C@@H](C)[C@@H](NC(=O)[C@@H](Cc1c[nH]c2ccccc12)NC(=O)[C@@H](CCCNC(=N)N)NC(=O)[C@H](N)CCCNC(=N)N)C(=O)N[C@H](Cc1c[nH]c2ccccc12)C(=O)N[C@@H](C(=O)N[C@@H](C(=O)N[C@H](Cc1c[nH]c2ccccc12)C(=O)N[C@H](CCCNC(=N)N)C(N)=O)[C@H](C)CC)C(C)C [WCopW54] (H-[dR][dR][dW][dI][dW][dV][dI][dW][dR]-NH2),0.63 µM,2.5 µM,0.63 µM,8.38 ± 1.14%,11.43 ± 2.42%,35.13 ± 4.13%,–
CC[C@@H](C)[C@@H](NC(=O)[C@@H](Cc1c[nH]c2ccccc12)NC(=O)[C@H](NC(=O)[C@@H](CC(C)C)NC(=O)[C@@H](Cc1c[nH]c2ccccc12)NC(=O)[C@H](N)CC(=O)O)C(C)C)C(=O)N[C@H](Cc1c[nH]c2ccccc12)C(=O)N[C@H](CCCNC(=N)N)C(=O)N[C@H](CCCNC(=N)N)C(=O)N[C@H](CCCNC(=N)N)C(N)=O [WCopW36] (H-[dD][dW][dL][dV][dW][dI][dW][dR][dR][dR]-NH2),–,–,1.25 µM,4.03 ±0.40%,7.48 ±0.90%,9.86 ±1.62%,–
CC[C@@H](C)[C@@H](NC(=O)[C@@H](Cc1c[nH]c2ccccc12)NC(=O)[C@H](NC(=O)[C@@H](CC(C)C)NC(=O)[C@@H](Cc1c[nH]c2ccccc12)NC(=O)[C@H](N)CCCCN)C(C)C)C(=O)N[C@H](Cc1c[nH]c2ccccc12)C(=O)N[C@H](CCCNC(=N)N)C(=O)N[C@H](CCCNC(=N)N)C(=O)N[C@H](CCCNC(=N)N)C(N)=O [WCopW35] (H-[dK][dW][dL][dV][dW][dI][dW][dR][dR][dR]-NH2),0.63 µM,2.5 µM,0.63 µM,1.18 ±0.34%,2.71 ±0.63%,6.07 ±1.01%,–
CC[C@@H](C)[C@@H](NC(=O)[C@@H](Cc1c[nH]c2ccccc12)NC(=O)[C@@H](Cc1ccc(O)cc1)NC(=O)[C@@H](CC(C)C)NC(=O)[C@H](N)Cc1c[nH]c2ccccc12)C(=O)N[C@H](CC(C)C)C(=O)N[C@H](CC(C)C)C(=O)N[C@H](CCCNC(=N)N)C(=O)N[C@H](CCCCN)C(=O)N[C@H](CCCCN)C(=O)N[C@H](CCCNC(=N)N)C(N)=O [WCopWYL] (H-[dW][dL][dY][dW][dI][dL][dL][dR][dK][dK][dR]-NH2),–,–,–,2.50%,6.29%,9.62%,–
CC(C)C[C@@H](NC(=O)[C@H](N)Cc1c[nH]c2ccccc12)C(=O)N[C@@H](C(=O)N[C@H](Cc1c[nH]c2ccccc12)C(=O)N[C@H](CCCCN)C(=O)N[C@H](Cc1c[nH]c2ccccc12)C(=O)N[C@H](CCCNC(=N)N)C(=O)N[C@H](CCCNC(=N)N)C(=O)N[C@H](CCCNC(=N)N)C(N)=O)C(C)C [WCopW37] (H-[dW][dL][dV][dW][dK][dW][dR][dR][dR]-NH2),2.5 µM,–,5 µM,0.13 ±0.02%,0.08 ±0.01%,0.16 ±0.03%,–
CC(C)[C@@H](NC(=O)[C@H](N)Cc1c[nH]c2ccccc12)C(=O)N[C@@H](C(=O)N[C@H](Cc1c[nH]c2ccccc12)C(=O)N[C@@H](C(=O)N[C@@H](C(=O)N[C@H](Cc1c[nH]c2ccccc12)C(=O)N[C@H](CCCNC(=N)N)C(=O)N[C@H](CCCNC(=N)N)C(=O)N[C@H](CCCNC(=N)N)C(N)=O)C(C)C)C(C)C)C(C)C [WCopW42] (H-[dW][dV][dV][dW][dV][dV][dW][dR][dR][dR]-NH2),–,–,–,7.14%,16.66%,26.66%,–
CC[C@@H](C)[C@@H](NC(=O)[C@@H](Cc1c[nH]c2ccccc12)NC(=O)[C@@H](CC(C)C)NC(=O)[C@@H](CC(C)C)NC(=O)[C@H](N)Cc1csc2ccccc12)C(=O)NCC(=O)N[C@H](CC(C)C)C(=O)N[C@H](CCCNC(=N)N)C(=O)N[C@H](CCCCN)C(=O)N[C@H](CCCCN)C(=O)N[C@H](CCCNC(=N)N)C(N)=O [WCopW16] (H-[dBta][dL][dL][dW][dI]G[dL][dR][dK][dK][dR]-NH2),–,–,–,2.77%,5.57%,10.59%,–
CC(C)[C@@H](NC(=O)[C@H](N)Cc1c[nH]c2ccccc12)C(=O)N[C@@H](C(=O)N[C@@H](C(=O)N[C@@H](C(=O)N[C@H](Cc1c[nH]c2ccccc12)C(=O)N[C@H](CCCNC(=N)N)C(=O)N[C@H](CCCNC(=N)N)C(=O)N[C@H](CCCNC(=N)N)C(N)=O)C(C)C)C(C)C)C(C)C [WCopW44] (H-[dW][dV][dV][dV][dV][dW][dR][dR][dR]-NH2),2.5 µM,–,1.25 µM,0.11 ±0.03%,0.87 ±0.36%,4.48 ±1.01%,–
CC[C@@H](C)[C@@H](NC(=O)[C@@H](Cc1c[nH]c2ccccc12)NC(=O)[C@@H](CC(C)C)NC(=O)[C@@H](CC(C)C)NC(=O)[C@H](N)Cc1c[nH]c2ccccc12)C(=O)N[C@H](C)C(=O)N[C@H](CC(C)C)C(=O)N[C@H](CCCNC(=N)N)C(=O)N[C@H](CCCCN)C(=O)N[C@H](CCCCN)C(=O)N[C@H](CCCNC(=N)N)C(N)=O [WCopW4] (H-[dW][dL][dL][dW][dI][dA][dL][dR][dK][dK][dR]-NH2),–,–,–,5.94%,9.85%,18.84%,–
WLLWIALRKKR-NH2 [WCopW1],–,> 20 µM,–,7.03%,10.46%,19.40%,–
CC[C@@H](C)[C@@H](NC(=O)[C@@H](Cc1c[nH]c2ccccc12)NC(=O)[C@H](NC(=O)[C@@H](CC(C)C)NC(=O)[C@H](N)Cc1c[nH]c2ccccc12)C(C)C)C(=O)N[C@H](Cc1ccc(O)cc1)C(=O)N[C@H](CC(C)C)C(=O)N[C@H](CCCNC(=N)N)C(=O)N[C@H](CCCCN)C(=O)N[C@H](CCCCN)C(=O)N[C@H](CCCNC(=N)N)C(N)=O [WCopWVY] (H-[dW][dL][dV][dW][dI][dY][dL][dR][dK][dK][dR]-NH2),–,–,–,2.47%,4.51%,7.25%,–
CC(C)C[C@@H](NC(=O)[C@H](N)Cc1c[nH]c2ccccc12)C(=O)N[C@@H](C(=O)N[C@H](Cc1c[nH]c2ccccc12)C(=O)N[C@H](CC(=O)O)C(=O)N[C@H](Cc1c[nH]c2ccccc12)C(=O)N[C@H](CCCNC(=N)N)C(=O)N[C@H](CCCNC(=N)N)C(=O)N[C@H](CCCNC(=N)N)C(N)=O)C(C)C [WCopW38] (H-[dW][dL][dV][dW][dD][dW][dR][dR][dR]-NH2),–,–,–,–,0.06 ±0.06%,–,0.06%
